This passage reports IC50 results from patent US12168012B2, “NLRP3 inflammasome inhibitors” (Novartis AG, priority 2018, dated 2024).

Counter-ions that a name gives are not always drawn.

In assay [1] the test system is NLRP3 inflammasome. Nature of the assay: IL-1β secretion assay. It is filed as cell-based. The settings on record: Homo sapiens, THP-1, 3 h, PMA-differentiated THP-1 cells, 15 μM nigericin, HTRF. On the procedure: 10 μL supernatant was removed, and IL-1p levels were monitored using an HTRF assay (CisBio, #62IL1PEC) according to manufacturers' instructions. Viability and pyroptosis was monitored with the addition of PrestoBlue cell viability reagent (Life Technologies, #A13261) directly to the cell culture plate.
IC50 values were calculated from the plot of percentage of inhibition versus the inhibitor concentration by a logistics fit according to: y=A2+(A1−A2)/(1+(x/IC50)^p) where y is the %-inhibition at the inhibitor concentration, x. A1 is the lowest inhibition value, i.e. 0%, and A2 the maximum inhibition value, i.e. 100%. The exponent, p, is the Hill coefficient. The curve fitting was conducted with an internally developed software suite.
NLRP3-dependent IL-1β secretion was stimulated in PMA-differentiated THP-1 cells by the addition of nigericin, and cytokines were measured in the […] after 3 hours. As discussed above, activation of the NLRP3 inflammasome requires both an NF-kB-dependent priming step and the addition of a NLRP3 activator.
In general terms: Time-resolved FRET reads energy transfer from a long-lived donor to a nearby acceptor.

Assay [2] relates to NF-kB-dependent TNF-α secretion. In words: TNF-α secretion assay (counterscreen). The settings on record: Homo sapiens; THP-1 cells, Pam3CSK4-stimulated, 3 hours, HTRF. Type of assay: cell-based. On the procedure: Monocytic THP-1 cells were maintained according to providers' instructions in RPMI media as described above. Undifferentiated cells were plated at 50,000 cells per well in a 384-well flat-bottom cell culture plates (Greiner, #781986), and allowed to rest overnight. Experimental compounds were prepared and added as described above. TNF-α secretion was triggered by the addition of either 1 μg/mL LPS (Sigma, #L4391) or 100 ng/mL Pam3CSK4 (Invivogen, #tlrl-pms) depending on the experiment, and cells were incubated for 3 hours. 10 μL supernatant was removed, and TNF-α levels were monitored using an HTRF assay (CisBio, #62TNFPEC) according to manufacturers' instructions. Viability was monitored as described above.
IC50 values were calculated from the plot of percentage of inhibition versus the inhibitor concentration by a logistics fit according to: y=A2+(A1−A2)/(1+(x/IC50)^p) where y is the %-inhibition at the inhibitor concentration, x. A1 is the lowest inhibition value, i.e. 0%, and A2 the maximum inhibition value, i.e. 100%. The exponent, p, is the Hill coefficient. The curve fitting was conducted with an internally developed software suite. […]
A general note: A counterscreen serves to expose hits that act by an unwanted route or on another target.

For orientation: IC50 means the concentration that inhibits the measured activity by half. Low values mean higher potency, high ones lower potency. Turning to `O=C(Cn1nc(C2CC2)n2c(cc3scnc32)c1=O)Nc1cccnc1` [Ex 4, 2-(5-Cyclopropyl-8-oxothiazolo[5′,4′:4,5]pyrrolo[1,2-d][1,2,4]triazin-7(8H)-yl)-N-(pyridin-3-yl)acetamide], the results for the IC50 in assay [1] and in assay [2] were 0.22 µM and more than 100 µM, respectively.
For `CC(C)c1nn(CC(=O)Nc2ccncn2)c(=O)c2cc3sc(F)cc3n12` [Ex 6, 2-(2-Fluoro-5-isopropyl-8-oxothieno[2′,3′:4,5]pyrrolo[1,2-d][1,2,4]triazin-7(8H)-yl)-N-(pyrimidin-4-yl)acetamide] the same measures were 0.0065 µM and more than 100 µM.
For `Cc1cc2c(cc3c(=O)n(CC(=O)Nc4cccnc4)nc(C(C)C)n32)s1` [Ex 7, 2-(5-Isopropyl-2-methyl-8-oxothieno[2′,3′:4,5]pyrrolo[1,2-d][1,2,4]triazin-7(8H)-yl)-N-(pyridin-3-yl)acetamide] the same measures were 0.254 µM and more than 100 µM.
As for `CC(C)(O)c1nn(CC(=O)Nc2cccnc2)c(=O)c2cc3sc(Cl)cc3n12` [Ex 8, 2-(2-Chloro-5-(2-hydroxypropan-2-yl)-8-oxothieno[2′,3′:4,5]pyrrolo[1,2-d][1,2,4]triazin-7(8H)-yl)-N-(pyridin-3-yl)acetamide], the figures for the IC50 in assay [1] and in assay [2] were 0.0874 µM and more than 100 µM, respectively.
The matching figures for `CC(C)(O)c1nn(CC(=O)Nc2ccncn2)c(=O)c2cc3sc(Cl)cc3n12` [Ex 9, 2-(2-Chloro-5-(2-hydroxypropan-2-yl)-8-oxothieno[2′,3′:4,5]pyrrolo[1,2-d][1,2,4]triazin-7(8H)-yl)-N-(pyrimidin-4-yl)acetamide]: 0.0079 µM and more than 100 µM.
For `CC(C)c1nn(CC(=O)N[C@@H]2CCC(=O)NC2)c(=O)c2cc3sc(Cl)cc3n12` [Ex 19, (R)-2-(2-Chloro-5-isopropyl-8-oxothieno[2′,3′:4,5]pyrrolo[1,2-d][1,2,4]triazin-7(8H)-yl)-N-(6-oxopiperidin-3-yl)acetamide], the half-inhibitory concentration (IC50) in assay [1] is 0.0486 µM; in assay [2] it was more than 100 µM.
For `CC(C)c1nn(CC(=O)NCC(C)(C)CO)c(=O)c2cc3sc(Cl)cc3n12` [Ex 20, 2-(2-Chloro-5-isopropyl-8-oxothieno[2′,3′:4,5]pyrrolo[1,2-d][1,2,4]triazin-7(8H)-yl)-N-(3-hydroxy-2,2-dimethylpropyl)acetamide] the same measures were 0.0598 µM and more than 100 µM.
For `CC(C)c1nn(CC(=O)N[C@@H]2CCC[C@@H](O)C2)c(=O)c2cc3sc(Cl)cc3n12` [Ex 21, 2-(2-Chloro-5-isopropyl-8-oxothieno[2′,3′:4,5]pyrrolo[1,2-d][1,2,4]triazin-7(8H)-yl)-N-((1R,3R)-3-hydroxycyclohexyl)acetamide], the IC50 was 0.0325 µM in assay [1] and more than 100 µM in assay [2].
The matching figures for `CC(C)c1nn(CC(=O)NC2CC3(COC3)C2)c(=O)c2cc3sc(Cl)cc3n12` [Ex 24, 2-(2-Chloro-5-isopropyl-8-oxothieno[2′,3′:4,5]pyrrolo[1,2-d][1,2,4]triazin-7(8H)-yl)-N-(2-oxaspiro[3.3]heptan-6-yl)acetamide]: 0.0395 µM and more than 100 µM.
The matching figures for `CC1(C)CC(NC(=O)Cn2nc(C(C)(C)O)n3c(cc4sc(Cl)cc43)c2=O)C1` [Ex 25, 2-(2-Chloro-5-(2-hydroxypropan-2-yl)-8-oxothieno[2′,3′:4,5]pyrrolo[1,2-d][1,2,4]triazin-7(8H)-yl)-N-(3,3-dimethylcyclobutyl)acetamide]: 0.0785 µM and more than 100 µM.
The matching figures for `CC(C)(O)c1nn(CC(=O)NC2CC3(COC3)C2)c(=O)c2cc3sc(Cl)cc3n12` [Ex 26, 2-(2-Chloro-5-(2-hydroxypropan-2-yl)-8-oxothieno[2′,3′:4,5]pyrrolo[1,2-d][1,2,4]triazin-7(8H)-yl)-N-(2-oxaspiro[3.3]heptan-6-yl)acetamide]: 0.0464 µM and more than 100 µM.
Turning to `CC(C)c1nn(CC(=O)N[C@@H]2CCC[C@@](C)(O)C2)c(=O)c2cc3sc(Cl)cc3n12` [Ex 27, 2-(2-Chloro-5-isopropyl-8-oxothieno[2′,3′:4,5]pyrrolo[1,2-d][1,2,4]triazin-7(8H)-yl)-N-((1R,3R)-3-hydroxy-3-methylcyclohexyl)acetamide], the IC50 in assay [1] is 0.018 µM; in assay [2] it was more than 100 µM.
For `CC(C)c1nn(CC(=O)N[C@@H]2CCCN(CCF)C2)c(=O)c2cc3sc(Cl)cc3n12` [Ex 28, (R)-2-(2-Chloro-5-isopropyl-8-oxothieno[2′,3′:4,5]pyrrolo[1,2-d][1,2,4]triazin-7(8H)-yl)-N-(1-(2-fluoroethyl)piperidin-3-yl)acetamide] the same measures were 0.0133 µM and more than 100 µM.
The matching figures for `CN1C[C@H](NC(=O)Cn2nc(C(C)(C)O)n3c(cc4sc(Cl)cc43)c2=O)CCC1=O` [Ex 29, (R)-2-(2-Chloro-5-(2-hydroxypropan-2-yl)-8-oxothieno[2′,3′:4,5]pyrrolo[1,2-d][1,2,4]triazin-7(8H)-yl)-N-(1-methyl-6-oxopiperidin-3-yl)acetamide]: 0.0357 µM and more than 100 µM.
The matching figures for `CC(C)(O)c1nn(CC(=O)N[C@@H]2CCCN(CCF)C2)c(=O)c2cc3sc(Cl)cc3n12` [Ex 30, (R)-2-(2-Chloro-5-(2-hydroxypropan-2-yl)-8-oxothieno[2′,3′:4,5]pyrrolo[1,2-d][1,2,4]triazin-7(8H)-yl)-N-(1-(2-fluoroethyl)piperidin-3-yl)acetamide]: 0.0525 µM and more than 100 µM.
`CC(C)c1nn(CC(=O)N[C@@H]2CCCNC2)c(=O)c2cc3sc(F)cc3n12` [Ex 31, (R)-2-(2-Fluoro-5-isopropyl-8-oxothieno[2′,3′:4,5]pyrrolo[1,2-d][1,2,4]triazin-7(8H)-yl)-N-(piperidin-3-yl)acetamide hydrochloride]: the half-inhibitory concentration (IC50) in assay [1] was 0.0905 µM; in assay [2], more than 100 µM.
Take `CC(C)c1nn(CC(=O)N[C@@H]2CCCN(C)C2)c(=O)c2cc3sc(F)cc3n12` [Ex 32, (R)-2-(2-Fluoro-5-isopropyl-8-oxothieno[2′,3′:4,5]pyrrolo[1,2-d][1,2,4]triazin-7(8H)-yl)-N-(1-methylpiperidin-3-yl)acetamide]: the IC50 was 0.0076 µM in assay [1] and more than 100 µM in assay [2].
The matching figures for `CC(C)c1nn(CC(=O)N[C@@H]2CCC(=O)NC2)c(=O)c2cc3sc(F)cc3n12` [Ex 33, (R)-2-(2-Fluoro-5-isopropyl-8-oxothieno[2′,3′:4,5]pyrrolo[1,2-d][1,2,4]triazin-7(8H)-yl)-N-(6-oxopiperidin-3-yl)acetamide]: 0.108 µM and more than 100 µM.
Regarding `O=C(Cn1nc(C2CC2)n2c(cc3sc(F)cc32)c1=O)N[C@@H]1CCCNC1` [Ex 34, (R)-2-(5-Cyclopropyl-2-fluoro-8-oxothieno[2′,3′:4,5]pyrrolo[1,2-d][1,2,4]triazin-7(8H)-yl)-N-(piperidin-3-yl)acetamide], the results for the IC50 in assay [1] and in assay [2] were 0.0803 µM and more than 100 µM, respectively.
For `CN1CCC[C@@H](NC(=O)Cn2nc(C3CC3)n3c(cc4sc(F)cc43)c2=O)C1` [Ex 35, (R)-2-(5-Cyclopropyl-2-fluoro-8-oxothieno[2′,3′:4,5]pyrrolo[1,2-d][1,2,4]triazin-7(8H)-yl)-N-(1-methylpiperidin-3-yl)acetamide] the same measures were 0.0481 µM and 40 µM.
The matching figures for `O=C(Cn1nc(C2CC2)n2c(cc3sc(Cl)cc32)c1=O)N[C@@H]1CCCNC1` [Ex 36, (R)-2-(2-Chloro-5-cyclopropyl-8-oxothieno[2′,3′:4,5]pyrrolo[1,2-d][1,2,4]triazin-7(8H)-yl)-N-(piperidin-3-yl)acetamide hydrochloride]: 0.109 µM and more than 100 µM.
For the molecule `CN1CCC[C@@H](NC(=O)Cn2nc(C3CC3)n3c(cc4sc(Cl)cc43)c2=O)C1` [Ex 37, (R)-2-(2-Chloro-5-cyclopropyl-8-oxothieno[2′,3′:4,5]pyrrolo[1,2-d][1,2,4]triazin-7(8H)-yl)-N-(1-methylpiperidin-3-yl)acetamide], the values for the IC50 in assay [1] and in assay [2] were 0.101 µM and more than 100 µM, respectively.
For `Cc1cc2c(cc3c(=O)n(CC(=O)N[C@@H]4CCCNC4)nc(C(C)C)n32)s1` [Ex 38, (R)-2-(5-Isopropyl-2-methyl-8-oxothieno[2′,3′:4,5]pyrrolo[1,2-d][1,2,4]triazin-7(8H)-yl)-N-(piperidin-3-yl)acetamide] the same measures were 0.088 µM and more than 100 µM.
As to `Cc1cc2c(cc3c(=O)n(CC(=O)N[C@@H]4CCC(=O)NC4)nc(C(C)C)n32)s1` [Ex 39, (R)-2-(5-Isopropyl-2-methyl-8-oxothieno[2′,3′:4,5]pyrrolo[1,2-d][1,2,4]triazin-7(8H)-yl)-N-(6-oxopiperidin-3-yl)acetamide], the half-inhibitory concentration (IC50) in assay [1] is 0.54 µM; in assay [2] it was more than 100 µM.
